# Columns and labels:
# Experiment in all cases: KinomeScan kinase profiling
# Type in all cases: binding
# ABL1 (F317L) = target: T1, ABL1 (F317L) (Homo sapiens, UniProt P00519, F317L)
# T1 construct: host or cells: E. coli host derived from BL21 (T7 phage lysate)
# Outline: (§1)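 Kinases were expressed as T7 phage fusions in a BL21-derived E. coli host and the cleared lysates were used. Ligand beads were blocked with biotin and buffer (1% BSA, 0.05% Tween 20, 1 mM DTT). Compounds came from 40× DMSO stocks, and phage in the eluates was titred by qPCR.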
# ADCK3 = target: T2, ADCK3 (Homo sapiens, UniProt Q8NI60)
# T2 construct: host or cells: E. coli host derived from BL21 (T7 phage lysate)
# Outline: as §1
# AMPK-alpha1 = target: T3, AMPK-alpha1 (Homo sapiens, UniProt Q13131)
# T3 construct: host or cells: E. coli host derived from BL21 (T7 phage lysate)
# Outline: as §1
# AURKC = target: T4, AURKC (Homo sapiens, UniProt Q9UQB9)
# T4 construct: purchased Ambit Biosciences Corp (KinomeScan); host or cells: E. coli host derived from the BL21 strain, T7 phage
# Outline: as §1
# BRAF (V600E) = target: T5, BRAF (V600E) (Homo sapiens, UniProt P15056, V600E)
# T5 construct: purchased Ambit Biosciences Corp (KinomeScan); host or cells: E. coli host derived from the BL21 strain, T7 phage
# Outline: as §1
# BRSK1 = target: T6, BRSK1 (Homo sapiens, UniProt Q8TDC3)
# T6 construct: purchased Ambit Biosciences Corp (KinomeScan); host or cells: E. coli host derived from the BL21 strain, T7 phage
# Outline: as §1
# CAMKK1 = target: T7, CAMKK1 (Homo sapiens, UniProt Q8N5S9)
# T7 construct: host or cells: T7 phage in E. coli (BL21-derived)
# Outline: as §1
# CDK3 = target: T8, CDK3 (Homo sapiens, UniProt Q00526)
# T8 construct: host or cells: T7 phage in E. coli (BL21-derived)
# Outline: as §1
# CSK = target: T9, CSK (Homo sapiens, UniProt P41240)
# T9 construct: host or cells: T7 phage in E. coli (BL21-derived)
# Outline: as §1
# CSNK2A1 = target: T10, CSNK2A1 (Homo sapiens, UniProt P68400)
# T10 construct: purchased Ambit Biosciences Corp (KinomeScan); host or cells: T7 phage in E. coli host derived from BL21
# Outline: as §1
# EPHA7 = target: T11, EPHA7 (Homo sapiens, UniProt Q15375)
# T11 construct: host or cells: E. coli host derived from BL21, T7 phage lysate
# Outline: as §1
# EPHB3 = target: T12, EPHB3 (Homo sapiens, UniProt P54753)
# T12 construct: host or cells: E. coli host derived from BL21, T7 phage lysate
# Outline: as §1
# ERK5 = target: T13, ERK5 (Homo sapiens, UniProt Q13164)
# T13 construct: host or cells: E. coli host derived from BL21, T7 phage lysate
# Outline: as §1
# HIPK1 = target: T14, HIPK1 (Homo sapiens, UniProt Q86Z02)
# T14 construct: host or cells: E. coli host derived from BL21, infected with T7 phage
# Outline: as §1
# [1] = target: T15, JAK3 (JH1domain-catalytic) (Homo sapiens, UniProt P52333)
# T15 construct: JAK3 (JH1domain-catalytic); host or cells: T7 phage in E. coli host derived from BL21
# Outline: as §1
# MEK2 = target: T16, MEK2 (Homo sapiens, UniProt P36507)
# T16 construct: host or cells: E. coli derived from BL21, infected with T7 phage
# Outline: as §1
# NDR2 = target: T17, NDR2 (Homo sapiens, UniProt Q9Y2H1)
# T17 construct: host or cells: T7 phage in E. coli host derived from BL21
# Outline: as §1
# PAK4 = target: T18, PAK4 (Homo sapiens, UniProt O96013)
# T18 construct: host or cells: E. coli host derived from the BL21 strain, infected with T7 phage
# Outline: as §1
# PFTAIRE2 = target: T19, PFTAIRE2 (Homo sapiens, UniProt Q96Q40)
# T19 construct: host or cells: E. coli host derived from the BL21 strain, infected with T7 phage
# Outline: as §1
# SRC = target: T20, SRC (Homo sapiens, UniProt P12931)
# T20 construct: host or cells: E. coli host derived from the BL21 strain, T7 phage lysate
# Outline: as §1
# STK16 = target: T21, STK16 (Homo sapiens, UniProt O75716)
# T21 construct: host or cells: E. coli host derived from the BL21 strain, T7 phage lysate
# Outline: as §1
# TAK1 = target: T22, TAK1 (Homo sapiens, UniProt O43318)
# T22 construct: host or cells: E. coli host derived from the BL21 strain, T7 phage lysate
# Outline: as §1
# TNK2 = target: T23, TNK2 (Homo sapiens, UniProt Q07912)
# T23 construct: purchased Ambit Biosciences Corp (KinomeScan); host or cells: E. coli host derived from the BL21 strain (T7 phage lysate)
# Outline: as §1
# T4 sequence (Q9UQB9 whole entry): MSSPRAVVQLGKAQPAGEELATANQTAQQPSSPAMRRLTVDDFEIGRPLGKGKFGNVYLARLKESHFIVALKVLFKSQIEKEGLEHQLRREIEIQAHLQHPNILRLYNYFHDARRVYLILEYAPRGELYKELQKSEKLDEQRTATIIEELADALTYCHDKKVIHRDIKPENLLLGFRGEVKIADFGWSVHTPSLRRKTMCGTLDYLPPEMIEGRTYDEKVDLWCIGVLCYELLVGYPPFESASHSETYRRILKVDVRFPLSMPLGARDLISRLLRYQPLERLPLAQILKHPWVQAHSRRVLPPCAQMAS
# T13 sequence (Q13164 whole entry): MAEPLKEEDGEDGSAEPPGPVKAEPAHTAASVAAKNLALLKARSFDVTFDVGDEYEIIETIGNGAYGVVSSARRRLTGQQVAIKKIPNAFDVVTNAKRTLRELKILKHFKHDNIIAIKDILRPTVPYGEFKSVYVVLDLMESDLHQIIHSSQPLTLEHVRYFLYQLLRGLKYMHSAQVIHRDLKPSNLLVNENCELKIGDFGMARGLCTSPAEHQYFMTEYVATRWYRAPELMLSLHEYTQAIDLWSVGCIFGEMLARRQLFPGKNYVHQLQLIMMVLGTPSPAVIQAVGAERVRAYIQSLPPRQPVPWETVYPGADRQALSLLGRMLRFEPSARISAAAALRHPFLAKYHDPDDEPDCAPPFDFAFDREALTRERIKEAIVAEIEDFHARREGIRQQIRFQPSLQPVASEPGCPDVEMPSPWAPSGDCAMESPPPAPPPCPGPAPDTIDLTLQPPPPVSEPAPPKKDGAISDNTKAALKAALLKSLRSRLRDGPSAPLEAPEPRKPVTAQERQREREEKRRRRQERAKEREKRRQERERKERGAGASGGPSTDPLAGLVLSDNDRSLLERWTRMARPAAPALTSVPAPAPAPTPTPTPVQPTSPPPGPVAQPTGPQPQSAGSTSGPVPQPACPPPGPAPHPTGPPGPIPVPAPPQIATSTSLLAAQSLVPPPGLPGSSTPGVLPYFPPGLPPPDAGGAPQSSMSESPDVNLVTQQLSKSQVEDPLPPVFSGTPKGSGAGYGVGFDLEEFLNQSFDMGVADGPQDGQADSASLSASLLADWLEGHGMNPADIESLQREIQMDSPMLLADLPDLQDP
# T11 sequence (Q15375 28-998): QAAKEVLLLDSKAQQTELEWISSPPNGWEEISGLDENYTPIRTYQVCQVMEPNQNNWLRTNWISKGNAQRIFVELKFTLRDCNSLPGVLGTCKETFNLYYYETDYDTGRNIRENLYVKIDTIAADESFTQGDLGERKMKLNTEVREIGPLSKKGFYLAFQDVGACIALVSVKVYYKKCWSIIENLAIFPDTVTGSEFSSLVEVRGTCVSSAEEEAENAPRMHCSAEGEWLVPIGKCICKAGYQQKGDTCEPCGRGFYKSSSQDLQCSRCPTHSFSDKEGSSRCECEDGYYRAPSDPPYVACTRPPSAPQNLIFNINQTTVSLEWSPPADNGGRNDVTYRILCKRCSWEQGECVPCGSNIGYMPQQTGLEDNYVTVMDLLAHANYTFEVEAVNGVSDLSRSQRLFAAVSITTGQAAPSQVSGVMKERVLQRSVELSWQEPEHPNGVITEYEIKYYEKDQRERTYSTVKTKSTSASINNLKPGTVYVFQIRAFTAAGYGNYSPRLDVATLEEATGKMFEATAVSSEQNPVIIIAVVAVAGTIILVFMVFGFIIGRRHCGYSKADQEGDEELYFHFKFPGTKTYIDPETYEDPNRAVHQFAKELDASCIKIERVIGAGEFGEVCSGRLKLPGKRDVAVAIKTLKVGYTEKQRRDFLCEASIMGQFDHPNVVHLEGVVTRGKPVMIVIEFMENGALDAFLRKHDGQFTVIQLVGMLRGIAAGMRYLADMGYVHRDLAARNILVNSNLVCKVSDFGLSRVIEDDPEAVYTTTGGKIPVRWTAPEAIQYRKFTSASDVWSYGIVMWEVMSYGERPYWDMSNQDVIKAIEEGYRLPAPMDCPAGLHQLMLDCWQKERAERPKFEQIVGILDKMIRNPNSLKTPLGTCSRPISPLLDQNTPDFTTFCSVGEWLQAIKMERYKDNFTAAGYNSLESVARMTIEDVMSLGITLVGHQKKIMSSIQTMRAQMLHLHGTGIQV
# T20 sequence (P12931 whole entry): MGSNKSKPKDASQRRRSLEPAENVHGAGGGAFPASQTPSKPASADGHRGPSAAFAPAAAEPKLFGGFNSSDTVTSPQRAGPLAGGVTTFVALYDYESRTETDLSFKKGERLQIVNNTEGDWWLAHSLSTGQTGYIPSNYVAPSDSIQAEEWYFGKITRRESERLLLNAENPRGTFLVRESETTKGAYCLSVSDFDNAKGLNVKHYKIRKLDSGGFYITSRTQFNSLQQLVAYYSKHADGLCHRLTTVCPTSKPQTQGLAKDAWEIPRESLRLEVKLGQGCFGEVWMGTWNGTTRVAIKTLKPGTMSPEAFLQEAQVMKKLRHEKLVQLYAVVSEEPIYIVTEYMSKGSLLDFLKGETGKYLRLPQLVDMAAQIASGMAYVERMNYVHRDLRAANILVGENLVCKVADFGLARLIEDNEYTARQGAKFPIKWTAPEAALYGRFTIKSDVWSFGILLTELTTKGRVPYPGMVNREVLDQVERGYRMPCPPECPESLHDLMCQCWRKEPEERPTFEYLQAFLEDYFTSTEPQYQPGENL
# T22 sequence (O43318 whole entry): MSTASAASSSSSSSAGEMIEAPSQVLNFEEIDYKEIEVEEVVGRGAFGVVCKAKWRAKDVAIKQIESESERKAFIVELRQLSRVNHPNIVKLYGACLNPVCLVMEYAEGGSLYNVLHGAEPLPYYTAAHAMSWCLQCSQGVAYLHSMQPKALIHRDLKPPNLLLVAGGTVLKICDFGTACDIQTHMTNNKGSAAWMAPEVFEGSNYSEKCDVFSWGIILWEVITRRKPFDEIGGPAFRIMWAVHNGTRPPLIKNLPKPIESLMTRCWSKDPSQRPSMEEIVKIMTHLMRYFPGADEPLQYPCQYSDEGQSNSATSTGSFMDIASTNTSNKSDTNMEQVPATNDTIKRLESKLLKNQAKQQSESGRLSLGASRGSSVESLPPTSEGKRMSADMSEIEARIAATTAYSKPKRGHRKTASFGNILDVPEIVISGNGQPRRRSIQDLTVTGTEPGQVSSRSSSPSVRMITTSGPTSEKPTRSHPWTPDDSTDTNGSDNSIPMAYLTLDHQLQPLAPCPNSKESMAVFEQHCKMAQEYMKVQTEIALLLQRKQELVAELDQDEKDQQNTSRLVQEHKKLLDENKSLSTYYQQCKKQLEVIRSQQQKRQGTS
# T17 sequence (Q9Y2H1 whole entry): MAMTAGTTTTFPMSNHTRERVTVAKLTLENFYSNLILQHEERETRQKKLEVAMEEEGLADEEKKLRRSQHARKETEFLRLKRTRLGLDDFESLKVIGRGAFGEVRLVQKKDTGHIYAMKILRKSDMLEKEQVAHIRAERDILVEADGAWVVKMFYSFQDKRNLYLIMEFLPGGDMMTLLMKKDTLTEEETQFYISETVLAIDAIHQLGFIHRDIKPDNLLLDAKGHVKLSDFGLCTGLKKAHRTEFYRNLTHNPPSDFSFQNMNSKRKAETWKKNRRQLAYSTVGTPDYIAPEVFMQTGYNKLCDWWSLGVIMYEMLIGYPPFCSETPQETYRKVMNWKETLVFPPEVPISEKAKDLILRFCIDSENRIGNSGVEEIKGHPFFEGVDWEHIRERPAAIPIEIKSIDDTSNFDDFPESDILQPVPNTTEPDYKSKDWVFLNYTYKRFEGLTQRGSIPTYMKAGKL
# T15 sequence (P52333 822-1111 limits assumed): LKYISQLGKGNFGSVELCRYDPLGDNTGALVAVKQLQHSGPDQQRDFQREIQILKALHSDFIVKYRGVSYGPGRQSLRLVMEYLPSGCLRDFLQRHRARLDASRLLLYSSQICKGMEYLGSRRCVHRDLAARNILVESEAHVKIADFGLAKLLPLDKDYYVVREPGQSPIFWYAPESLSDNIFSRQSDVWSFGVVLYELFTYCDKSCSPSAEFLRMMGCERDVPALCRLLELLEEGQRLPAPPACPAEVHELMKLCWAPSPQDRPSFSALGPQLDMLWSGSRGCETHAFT
# T23 sequence (Q07912 whole entry): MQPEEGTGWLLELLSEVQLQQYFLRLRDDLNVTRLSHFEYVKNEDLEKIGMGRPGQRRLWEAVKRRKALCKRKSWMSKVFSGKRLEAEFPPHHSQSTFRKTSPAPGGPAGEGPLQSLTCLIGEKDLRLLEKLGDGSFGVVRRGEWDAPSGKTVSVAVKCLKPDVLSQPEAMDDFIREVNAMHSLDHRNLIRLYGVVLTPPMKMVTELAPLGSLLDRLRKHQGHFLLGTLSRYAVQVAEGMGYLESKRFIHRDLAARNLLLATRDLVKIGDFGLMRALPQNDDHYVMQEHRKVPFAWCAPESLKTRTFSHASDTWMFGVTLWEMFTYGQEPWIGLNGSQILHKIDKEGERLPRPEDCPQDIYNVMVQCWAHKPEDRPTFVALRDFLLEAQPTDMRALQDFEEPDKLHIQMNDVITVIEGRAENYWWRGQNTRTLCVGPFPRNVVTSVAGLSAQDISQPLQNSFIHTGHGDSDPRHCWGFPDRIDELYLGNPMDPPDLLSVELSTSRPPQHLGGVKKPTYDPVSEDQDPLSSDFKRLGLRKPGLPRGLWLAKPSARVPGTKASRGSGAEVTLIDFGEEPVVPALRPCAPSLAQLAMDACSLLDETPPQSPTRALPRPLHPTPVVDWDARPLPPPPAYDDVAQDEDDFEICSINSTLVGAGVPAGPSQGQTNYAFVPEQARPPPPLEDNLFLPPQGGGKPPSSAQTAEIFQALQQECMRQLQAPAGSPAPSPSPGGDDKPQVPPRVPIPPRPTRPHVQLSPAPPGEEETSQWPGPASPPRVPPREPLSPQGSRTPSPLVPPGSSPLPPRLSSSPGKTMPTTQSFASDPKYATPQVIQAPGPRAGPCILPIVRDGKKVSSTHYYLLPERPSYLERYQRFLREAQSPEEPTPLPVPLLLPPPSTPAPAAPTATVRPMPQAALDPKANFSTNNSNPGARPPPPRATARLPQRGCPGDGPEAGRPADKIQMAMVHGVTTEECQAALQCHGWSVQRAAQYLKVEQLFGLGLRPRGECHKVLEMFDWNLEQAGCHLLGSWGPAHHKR
smiles,measurement,setting,value
"C#Cc1cccc(Nc2ncnc3cc(OC)c(OCCCN4CCOCC4)cc23)c1 [NRC-2694, N-(3-ethylnylphenyl)-7-methoxy-6-[3-(4-morpholinyl)propoxy]-4-quinazolinamine]",% Ctrl @ 10000 nM,ABL1 (F317L),33 % Ctrl
same,% Ctrl @ 10000 nM,ADCK3,14 % Ctrl
same,% Ctrl @ 10000 nM,AMPK-alpha1,50 % Ctrl
same,% Ctrl @ 10000 nM,AURKC,47 % Ctrl
same,% Ctrl @ 10000 nM,BRAF (V600E),73 % Ctrl
same,% Ctrl @ 10000 nM,BRSK1,53 % Ctrl
same,% Ctrl @ 10000 nM,CAMKK1,71 % Ctrl
same,% Ctrl @ 10000 nM,CDK3,91 % Ctrl
same,% Ctrl @ 10000 nM,CSK,53 % Ctrl
same,% Ctrl @ 10000 nM,CSNK2A1,56 % Ctrl
same,% Ctrl @ 10000 nM,EPHA7,70 % Ctrl
same,% Ctrl @ 10000 nM,EPHB3,75 % Ctrl
same,% Ctrl @ 10000 nM,ERK5,90 % Ctrl
same,% Ctrl @ 10000 nM,HIPK1,70 % Ctrl
same,% Ctrl @ 10000 nM,[1],72 % Ctrl
same,% Ctrl @ 10000 nM,MEK2,44 % Ctrl
same,% Ctrl @ 10000 nM,NDR2,74 % Ctrl
same,% Ctrl @ 10000 nM,PAK4,80 % Ctrl
same,% Ctrl @ 10000 nM,PFTAIRE2,71 % Ctrl
same,% Ctrl @ 10000 nM,SRC,24 % Ctrl
same,% Ctrl @ 10000 nM,STK16,100 % Ctrl
same,% Ctrl @ 10000 nM,TAK1,66 % Ctrl
same,% Ctrl @ 10000 nM,TNK2,37 % Ctrl

# From patent publication US9050341B2, “Methods of treating drug resistant and other tumors by administering 6,7-dialkoxy quinazoline derivatives” (NATCO PHARMA LIMITED, priority 2009, dated 2015)
